According to patent US20230082358A1, “3D PRINTED UV CROSSLINKING MASKS” (University of Maryland, College Park, priority 2021, published 2023):

How the values were obtained:
Format in all cases: cell-based
[1] = tested on: Human umbilical vein endothelial cells (HUVECs); test: Cell metabolic activity assay (XTT), HUVECs; details: 100 and 1000 μg/mL heparin; 24, 72 and 120 h; p<0.05
Experimental: (§1) Human umbilical vein endothelial cells (HUVECs) (ThermoFisher Scientific, Waltham, Mass.) were seeded in 48-well plates at a density of 10,000 cells/well in 1 mL of Medium 200 (with manufacturer's required Low Serum Growth Supplement LSGS, ThermoFisher Scientific). Cells were left overnight to adhere before medium was replaced with 1 mL of treatment medium, which contained 0.1, 1, 10, 100, or 1000 μg/mL heparin in Medium 200 (with LSGS), while the control was medium only. The medium was replaced daily for the duration of this study. The electron coupling and XTT labeling reagents from the Cell Proliferation Kit II (XTT) (Roche, Mannheim, Germany) were mixed according to the manufacturer's protocol and added to the cell medium in a ratio of 1 to 2. Cell medium was removed from the wells and the XTT solution was added. It was incubated for 4 h and 100 μL was extracted in triplicate (n=9). The absorbance was measured with a Spark Multimode Microplate Reader (Tecan, Männedorf, Switzerland). Net absorbance was calculated (A475-A650) for each sample and XTT fold change was calculated by normalizing the net absorbance to that at 4 h.

[2] = tested on: Human umbilical vein endothelial cells (HUVECs); test: vWF immunostaining, HUVECs; details: higher heparin concentrations; up to 120 h
Experimental: (§2) HUVECs were seeded in 96-well plates at a density of 3,500 cells/well in 235 μL of Medium 200 (with LSGS). Cells were left overnight to adhere before medium was replaced with 200 μL of treatment medium, which contained 0.1, 1, 10, 100, or 1000 μg/mL heparin in Medium 200 (with LSGS), while the control was medium only. The medium was replaced daily for the duration of this study. Cells were fixed with 10% formalin and permeabilized. Wells were treated overnight with anti-von Willebrand factor antibody (1:200, 100 μL, ab9378, Abcam, Cambridge, Mass.). The secondary antibody used was Alexa Fluor 633 (4 μg/mL, Invitrogen, Carlsbad, Calif.). Then the cells were stained with DAPI solution (3 μg/mL in PBS) for 10 min. Wells were imaged with an Eclipse Ti2 microscope (Nikon, Tokyo, Japan) under Cy5 excitation (625-650 nm) and emission (670 nm) and DAPI excitation (340-380 nm) and emission (435-485 nm). MATLAB was used to quantify the intensity of the red channel and count the cells in the blue channel for 3 images of each of the 3 wells (n=9) to calculate a ratio of vWF intensity to number of cells.

[3] = tested on: Human umbilical vein endothelial cells (HUVECs); test: Actin immunostaining / adhesion, HUVECs; details: 72 h treatment
Experimental: (§3) HUVECs were treated in culture with treatment medium for 72 h. Treatment medium contained 0.1, 1, 10, 100, or 1000 μg/mL heparin in Medium 200 (with LSGS), while the control was medium only. The medium was replaced daily for the duration of this study. Cells were seeded in 96-well plate at a density of 30,000 cells/well in 200 μL of Medium 200 (with LSGS). Cells were left to adhere for 2 h before the medium was removed. Cells were fixed with 10% formalin and permeabilized. Wells were stained for 1 h with Alexa Fluor 488 Phalloidin (1:100, 100 μL, A12379, Invitrogen). Then the cells were stained with DAPI solution (3 μg/mL in PBS) for 10 min. Wells were imaged with an Eclipse Ti2 microscope under FITC excitation (465-495 nm) and emission (515-555 nm) and DAPI excitation (340-380 nm) and emission (435-485 nm). MATLAB was used to quantify the area of the green channel and count the cells in the blue channel for 3 images of each of the 3 wells (n=9) to calculate a ratio of F-actin area to number of cells.

[4] = tested on: Human umbilical vein endothelial cells (HUVECs); test: Scratch assay, HUVECs; details: p<0.05
Experimental: HUVECs were treated in culture with treatment medium for 48 h. Treatment medium contained 0.1, 1, 10, 100, or 1000 μg/mL heparin in Medium 200 (with LSGS), while the control was medium only. The medium was replaced daily for the duration of this study. A 48-well plate was treated for 45 min with 200 μL of 0.1% wt/vol porcine gelatin (Sigma-Aldrich, St. Louis, Mo.) in DI water at 37° C. Cells were seeded in the well plate at a density of 100,000 cells/well in 800 μL of Medium 200 (with LSGS). Cells were left to adhere for 24 h before the medium was replaced. Scratches were made with a 200 μL pipette tip. Cells were imaged for 1 to 16 h after the scratches were made. ImageJ was used to quantify the gap distance in one image for each well (n=6). Gap closure (%) was reported as
where lo is the original gap length and lt is the gap length at a given time. The gap closure speed was defined as the slope of gap length curve with respect to time and was normalized to that of the 0 μg/mL group.

[5] = tested on: Human umbilical artery endothelial cells (HUAECs); test: HUAECs heparin release study, XTT
Experimental: as §1, with “Cell medium was removed from the wells and the XTT solution was added. It was incubated for 4 h and 100 μL was extracted in triplicate (n=9).” left out
(§4) Human umbilical artery endothelial cells (HUAECs) (Sigma-Aldrich) were seeded in MesoEndo Cell Growth Medium (Sigma-Aldrich) with the appropriate heparin treatment. […] Immunostaining and quantification was completed as described above at 48 h. Tissue factor pathway inhibitor (TFPI) was quantified with DuoSet ELISA kit (R&D Systems, Minneapolis, Minn.) according to the manufacturer's protocol. […]

[6] = tested on: Human umbilical artery endothelial cells (HUAECs); test: HUAECs heparin release study, vWF immunostaining; details: 48 h, p<0.05
Experimental: as §2, with “Wells were imaged with an Eclipse Ti2 microscope (Nikon, Tokyo, Japan) under Cy5 excitation (625-650 nm) and emission (670 nm) and DAPI excitation (340-380 nm) and emission (435-485 nm).” left out
as §4

[7] = tested on: Human umbilical artery endothelial cells (HUAECs); test: HUAECs heparin release study, phalloidin (F-actin) staining; details: heparin profiles A, B, C; 48 h; p>0.05
Experimental: as §3, §4

[8] = tested on: Human umbilical artery endothelial cells (HUAECs); test: HUAECs heparin release study, TFPI ELISA; details: for release of TFPI: after 48 h, comparable to 0 μg/mL, more than profiles A and B
Experimental: Human umbilical artery endothelial cells (HUAECs) (Sigma-Aldrich) were seeded in MesoEndo Cell Growth Medium (Sigma-Aldrich) with the appropriate heparin treatment. For XTT and TFPI ELISA measurements, cells were seeded in a 24-well plate at a density of 150,000 cells/well in 1.8 mL of medium, while for immunostaining, cells were seeded in a 96-well plate at a density of 25,000 cells/well in 300 µL of medium. Treatment medium contained the heparin concentrations detailed in Table 1. One control group was medium only, while the other control group contained 30 μg/mL heparin, an estimate of heparin concentration during surgery. The medium was replaced at 8, 24, and 48 h. XTT was conducted as described above at 24 and 48 h. Immunostaining and quantification was completed as described above at 48 h. Tissue factor pathway inhibitor (TFPI) was quantified with DuoSet ELISA kit (R&D Systems, Minneapolis, Minn.) according to the manufacturer's protocol. The ladder and all samples were run in triplicate (n=9).

For heparin, which “XTT metabolic activity compared to 0 μg/mL heparin” value [1] is on record?
The value was “significantly decreased”.

And the “vWF expression (ratio of vWF intensity to number of cells)” value [2]?
The value was “upward trend”.

And the “number of cells adhered after 2 h, compared to 0 μg/mL” value ([3]; 1000 μg/mL heparin, p<0.05)?
Its value is “significantly lower”.

And the “ratio of F-actin area to number of cells, compared to 0 μg/mL” value ([3]; 1000 μg/mL heparin, p<0.05)?
The value was “significantly lower”.

What about the “number of cells adhered after 2 h” value ([3]; 0.1 and 1 μg/mL heparin) of the same substance?
Its value is “support”.

What about the “ratio of F-actin area to number of cells” value ([3]; 0.1 and 1 μg/mL heparin) of the same substance?
Its value is “support”.

What about the “gap closure over 16 h” value ([4]; 1, 10, 100 and 1000 μg/mL heparin) of the same substance?
Its value is “significantly decreases”.

And the “gap closure speed (normalized to 0 μg/mL)” value ([4]; 10, 100 and 1000 μg/mL heparin)?
Its value is “significantly decreases”.

And the “XTT metabolic activity of HUAECs at 48 h (normalized to 0 μg/mL)” value ([5]; heparin profile A (246/122/118 μg/mL at 0-8/8-24/24-48 h))?
The value was “reduces”.

And the “XTT metabolic activity and vWF expression of HUAECs” value ([5]; slower heparin profiles B and C)?
The value was “unaffected”.

What about the “vWF intensity, profile A versus profile C” value [6] of the same substance?
Its value is “higher”.

What about the “phalloidin (F-actin) area ratio” value [7] of the same substance?
The value was “not impacted”.

And the “release of TFPI” value ([8]; 30 μg/mL heparin)?
The value was “highest release of TFPI”.

And the “tissue factor pathway inhibitor (TFPI) produced” value ([8]; heparin profile A, after 24 and 48 h, p<0.05)?
The value was “significantly less”.

What about the “release of TFPI” value ([8]; heparin profile C) of the same substance?
The value was “highest release of TFPI”.
